Test results from patent US20040034050A1, “Homo-camptothecin derivatives” (priority 2002, published 2004).

These compounds were tested on VM46 cells (assay: Cell colony formation assay). Settings: drug concentration producing 50% inhibition of colony formation, incubated with drugs for 72 hours at 37° C., colonies counted after 8 days.
Format: cell-based
Method: This example provides directions for growing cells and testing compounds of the invention for their effect on the growth of the cells. All cells are purchased from DCTDC Tumor Repository, NCI, NIH.
Cell Colony Formation Assay
Five hundred cells (VM46) were plated in 60 mm Petri dishes containing 2.7 ml of medium (modified McCoy's 5a medium containing 10% bovine calf serum and 100 units/ml penicillin and […] streptomycin). The cells were incubated in a CO2 incubator at 37° C. for 5 hours for attachment to the bottom of Petri dishes. Drugs were made fresh in medium at ten times the final concentration, and then 0.3 ml of this stock solution was added to the 2.7 ml of medium in the dish. The cells were then incubated with drugs for 72 hours at 37° C. At the end of the incubation the drug-containing media were decanted, the dishes were rinsed with 4 ml of Hank's Balance Salt Solution (HBSS), 5 ml of fresh medium is added, and the dishes are returned to the incubator for colony formation. The cell colonies were counted using colony counter after incubation for 8 days for VM46 cells.
Values of ID50 (the drug concentration producing 50% inhibition of colony formation) may be determined for each tested compound.
In the case of `CC[C@@]1(O)CC(=O)OCc2c1cc1n(c2=O)Cc2cc3ccccc3nc2-1` (racemic) [homo-campothecin, homo-camptothecin], the “Values of ID 50” value is reported as 4 nM.
In the case of `CCC1(OC(=O)COc2cccc(Cl)c2Cl)CC(=O)OCc2c1cc1n(c2=O)Cc2cc3ccccc3nc2-1` (centres unmarked) [Example 1158, Homocamptothecin-20-O Ester of 2,3-Dichlorophenoxy Acetic Acid], the “Values of ID 50” value is reported as 1.5 nM.
In the case of `CCC1(OC(=O)COc2ccc(F)cc2)CC(=O)OCc2c1cc1n(c2=O)Cc2cc3ccccc3nc2-1` (centres unmarked) [Example 1160, Homo-camptothecin-20-O-ester of 4-Fluorophenoxyacetic Acid], the “Values of ID 50” value is reported as 1.5 nM.
In the case of `CCC1(OC(=O)COc2ccc(OC(F)(F)F)cc2)CC(=O)OCc2c1cc1n(c2=O)Cc2cc3ccccc3nc2-1` (centres unmarked) [Example 1164, Homo-camptothecin-20-O-ester of 4-Trifluoromethoxyphenoxyacetic Acid], the “Values of ID 50” value is reported as 3.5 nM.
For `CCC1(OC(=O)COc2ccccc2Cl)CC(=O)OCc2c1cc1n(c2=O)Cc2cc3ccccc3nc2-1` (centres unmarked) [Example 021229, Homocamptothecin-20-O Ester of 2-Chlorophenoxy Acetic Acid], the “Values of ID 50” value was 2 nM.
